Data taken from BindingDB's records for doi:10.1046/j.1471-4159.2002.00817.x (Uppsala University, 2002).

How the values were obtained:
[1] = molecular target: T1, Neuropeptide Y receptor type 1 (Gallus gallus, UniProt Q8QFM1)
T1 sequence (Q8QFM1 whole entry): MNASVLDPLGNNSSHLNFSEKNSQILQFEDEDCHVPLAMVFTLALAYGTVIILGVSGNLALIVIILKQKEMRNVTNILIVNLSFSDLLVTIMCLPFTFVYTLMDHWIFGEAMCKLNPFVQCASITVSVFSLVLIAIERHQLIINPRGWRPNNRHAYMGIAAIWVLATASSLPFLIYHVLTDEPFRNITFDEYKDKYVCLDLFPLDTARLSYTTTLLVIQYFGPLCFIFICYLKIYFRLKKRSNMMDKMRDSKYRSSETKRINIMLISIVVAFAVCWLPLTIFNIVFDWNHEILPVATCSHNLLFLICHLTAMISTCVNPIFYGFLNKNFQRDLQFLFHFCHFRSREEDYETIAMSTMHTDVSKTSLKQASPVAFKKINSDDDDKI

[2] = molecular target: T2, Neuropeptide Y receptor type 5 (Gallus gallus, UniProt Q8QFM2)
T2 sequence (Q8QFM2 whole entry): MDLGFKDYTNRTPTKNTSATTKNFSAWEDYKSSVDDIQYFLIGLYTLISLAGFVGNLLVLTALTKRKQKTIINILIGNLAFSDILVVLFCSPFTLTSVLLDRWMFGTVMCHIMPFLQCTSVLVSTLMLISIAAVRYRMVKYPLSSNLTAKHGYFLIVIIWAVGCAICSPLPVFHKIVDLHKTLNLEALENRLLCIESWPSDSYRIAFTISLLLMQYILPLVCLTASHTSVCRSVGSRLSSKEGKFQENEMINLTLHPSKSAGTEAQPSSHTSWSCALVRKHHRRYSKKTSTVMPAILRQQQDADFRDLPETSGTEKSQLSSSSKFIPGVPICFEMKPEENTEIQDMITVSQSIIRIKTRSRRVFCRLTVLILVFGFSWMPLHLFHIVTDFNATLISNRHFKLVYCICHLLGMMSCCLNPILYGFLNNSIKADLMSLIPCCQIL

Compound | Ki [1] [µM] | Ki [2] [µM]
CN(C)CC1CCC(CN=C(N)c2ccc(CC(NC(=O)C(Cc3ccccc3)NS(=O)(=O)c3ccc4ccccc4c3)C(=O)N3CCCC3)cc2)CC1 (stereo unspecified) [CAS_5312150] | > 10 | > 10
O=c1oc2ccccc2c(O)c1C1CC(c2ccc(-c3ccccc3)cc2)Cc2ccccc21 (stereo unspecified) [NSC_41735] | > 10 | 0.00081
CC[C@H](C)[C@H](NC(=O)[C@H](Cc1ccc(O)cc1)NC(=O)[C@H](CCCNC(=N)N)NC(=O)[C@H](CCCNC(=N)N)NC(=O)[C@H](CC(C)C)NC(=O)[C@H](CC(=O)O)NC(=O)[C@H](C)NC(=O)[C@H](C)NC(=O)[C@H](Cc1ccc(O)cc1)NC(=O)[C@H](CCC(N)=O)NC(=O)[C@H](C)NC(=O)[C@H](CCSC)NC(=O)[C@H](CCC(N)=O)NC(=O)[C@H](CCC(=O)O)NC(=O)[C@@H]1CCCN1C(=O)[C@@H](NC(=O)[C@H](C)NC(=O)[C@H](CC(N)=O)NC(=O)[C@H](CC(=O)O)NC(=O)CNC(=O)[C@@H]1CCCN1C(=O)[C@H](Cc1ccc(O)cc1)NC(=O)[C@@H](NC(=O)[C@@H]1CCCN1C(=O)[C@H](CCC(=O)O)NC(=O)[C@H](CC(C)C)NC(=O)[C@@H]1CCCN1C(=O)[C@H](C)N)C(C)C)[C@@H](C)O)C(=O)N[C@@H](CC(N)=O)C(=O)N[C@@H](CCSC)C(=O)N[C@@H](CC(C)C)C(=O)N[C@H](C(=O)N[C@@H](CCCNC(=N)N)C(=O)N1CCC[C@H]1C(=O)N[C@@H](CCCNC(=N)N)C(=O)N[C@@H](Cc1ccc(O)cc1)C(N)=O)[C@@H](C)O [CAS_59763-91-6] | > 10 | 0.00048

Further lines, results first:

Ki [1] [µM] | Ki [2] [µM] | Compound
> 10 | – | Nc1nc(NC[C@H]2CC[C@H](CNS(=O)(=O)c3cccc4ccccc34)CC2)nc2ccccc12 [CGP 71683]
> 10 | – | NC(N)=NCCCC(NC(=O)CC1(CC(=O)N2CCN(C3c4ccccc4NC(=O)c4ccccc43)CC2)CCCC1)C(=O)NCCn1c(=O)n(-c2ccccc2)n(-c2ccccc2)c1=O (stereo unspecified) [NSC_5311024]
– | > 10 | N=C(N)NCCCC(NC(=O)C(c1ccccc1)c1ccccc1)C(=O)NCc1ccc(O)cc1 (stereo unspecified) [NSC_5311023]
> 10 | 0.00468 | H-GPSQPTYPGDDAPVEDLIRFYNDLQQYLNVVTRHRY-NH2 [NSC_0]
